Experimental data published in PubChem BioAssay (NCI).
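Values below derive from 48-hour exposures of cells grown in 96-well plates, with endpoints linearly interpolated between the two concentrations bracketing the appropriate inhibition level. The concentration for 50% growth inhibition is given as GI50. TGI denotes the concentration required for complete inhibition of growth.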

How the values were obtained:
Assay in all cases: NCI-60 cell line screen, 48 h
LOX IMVI melanoma = tested on: LOX IMVI melanoma
T-47D breast = tested on: T-47D breast
OVCAR-5 ovarian = tested on: OVCAR-5 ovarian
HOP-62 NSCLC = tested on: HOP-62 NSCLC
U251 CNS = tested on: U251 CNS
COLO 205 colon = tested on: COLO 205 colon
M14 melanoma = tested on: M14 melanoma
786-0 renal = tested on: 786-0 renal
ACHN renal = tested on: ACHN renal
UO-31 renal = tested on: UO-31 renal
NCI-H226 lung = tested on: NCI-H226 lung
UACC-62 melanoma = tested on: UACC-62 melanoma
UACC-257 melanoma = tested on: UACC-257 melanoma
HCC-2998 colon = tested on: HCC-2998 colon
IGROV1 ovarian = tested on: IGROV1 ovarian
SK-MEL-5 melanoma = tested on: SK-MEL-5 melanoma
A498 renal = tested on: A498 renal
MCF7 breast = tested on: MCF7 breast
HS 578T breast = tested on: HS 578T breast
HT29 colon = tested on: HT29 colon
SK-MEL-28 melanoma = tested on: SK-MEL-28 melanoma
MALME-3M melanoma = tested on: MALME-3M melanoma
HOP-92 NSCLC = tested on: HOP-92 NSCLC
EKVX NSCLC = tested on: EKVX NSCLC
SF-295 CNS = tested on: SF-295 CNS
SF-268 CNS = tested on: SF-268 CNS
SNB-19 CNS = tested on: SNB-19 CNS
RXF 393 renal = tested on: RXF 393 renal
HL-60(TB) leukemia = tested on: HL-60(TB) leukemia
BT-549 breast = tested on: BT-549 breast
K-562 leukemia = tested on: K-562 leukemia
KM12 colon = tested on: KM12 colon
PC-3 prostate = tested on: PC-3 prostate
A549 NSCLC = tested on: A549 NSCLC
DU-145 prostate = tested on: DU-145 prostate
OVCAR-3 ovarian = tested on: OVCAR-3 ovarian
HCT-116 colon = tested on: HCT-116 colon
TK-10 renal = tested on: TK-10 renal
CCRF-CEM leukemia = tested on: CCRF-CEM leukemia
OVCAR-4 ovarian = tested on: OVCAR-4 ovarian
RPMI-8226 leukemia = tested on: RPMI-8226 leukemia
HCT-15 colon = tested on: HCT-15 colon
SK-OV-3 ovarian = tested on: SK-OV-3 ovarian
SNB-75 CNS = tested on: SNB-75 CNS
SN12C renal = tested on: SN12C renal
CAKI-1 renal = tested on: CAKI-1 renal
NCI-H460 lung = tested on: NCI-H460 lung
MDA-MB-231 breast = tested on: MDA-MB-231 breast
MOLT-4 leukemia = tested on: MOLT-4 leukemia
OVCAR-8 ovarian = tested on: OVCAR-8 ovarian
MDA-MB-435 = tested on: MDA-MB-435
NCI-H522 lung = tested on: NCI-H522 lung
SF-539 CNS = tested on: SF-539 CNS
SW-620 colon = tested on: SW-620 colon
NCI/ADR-RES ovarian = tested on: NCI/ADR-RES ovarian
SK-MEL-2 melanoma = tested on: SK-MEL-2 melanoma
NCI-H23 lung = tested on: NCI-H23 lung

SMILES: C=C1C(=O)c2sccc2C(c2ccc(OC)c(OC)c2)C1COC(C)=O (configuration not stated)
- GI50 (LOX IMVI melanoma): 173 nM
- GI50 (T-47D breast): 2240 nM
- TGI (T-47D breast): 5770 nM
- GI50 (OVCAR-5 ovarian): 2420 nM
- TGI (OVCAR-5 ovarian): 9290 nM
- GI50 (HOP-62 NSCLC): 6540 nM
- TGI (HOP-62 NSCLC): 15700 nM
- GI50 (U251 CNS): 1620 nM
- GI50 (COLO 205 colon): 2250 nM
- TGI (COLO 205 colon): 4890 nM
- TGI (M14 melanoma): 3100 nM
- GI50 (786-0 renal): 297 nM
- TGI (786-0 renal): 3990 nM
- GI50 (ACHN renal): 1860 nM
- GI50 (UO-31 renal): 1810 nM
- TGI (UO-31 renal): 3390 nM
- GI50 (NCI-H226 lung): 2930 nM
- TGI (NCI-H226 lung): 8560 nM
- GI50 (UACC-62 melanoma): 1430 nM
- TGI (UACC-62 melanoma): 3170 nM
- GI50 (UACC-257 melanoma): 1930 nM
- TGI (UACC-257 melanoma): 5770 nM
- GI50 (HCC-2998 colon): 2890 nM
- TGI (HCC-2998 colon): 7560 nM
- GI50 (IGROV1 ovarian): 2270 nM
- TGI (IGROV1 ovarian): 5670 nM
- GI50 (SK-MEL-5 melanoma): 1900 nM
- TGI (SK-MEL-5 melanoma): 4740 nM
- GI50 (A498 renal): 2130 nM
- TGI (A498 renal): 7200 nM
- GI50 (MCF7 breast): 953 nM
- TGI (MCF7 breast): 2980 nM
- GI50 (HS 578T breast): 2540 nM
- TGI (HS 578T breast): 8400 nM
- GI50 (HT29 colon): 1360 nM
- TGI (HT29 colon): 4010 nM
- GI50 (SK-MEL-28 melanoma): 2150 nM
- TGI (SK-MEL-28 melanoma): 4420 nM
- GI50 (MALME-3M melanoma): 1500 nM
- TGI (MALME-3M melanoma): 6410 nM
- GI50 (HOP-92 NSCLC): 2460 nM
- TGI (HOP-92 NSCLC): 6910 nM
- GI50 (EKVX NSCLC): 8370 nM
- TGI (EKVX NSCLC): 21300 nM
- GI50 (SF-295 CNS): 4430 nM
- TGI (SF-295 CNS): 16500 nM
- GI50 (SF-268 CNS): 3440 nM
- TGI (SF-268 CNS): 12900 nM
- GI50 (SNB-19 CNS): 8470 nM
- TGI (SNB-19 CNS): 32700 nM
- GI50 (RXF 393 renal): 595 nM
- TGI (RXF 393 renal): 1990 nM
- GI50 (HL-60(TB) leukemia): 2980 nM
- TGI (HL-60(TB) leukemia): > 100000 nM
- GI50 (BT-549 breast): 2110 nM
- TGI (BT-549 breast): 4790 nM
- GI50 (K-562 leukemia): 200 nM
- TGI (K-562 leukemia): > 29700 nM
- GI50 (KM12 colon): 1210 nM
- TGI (KM12 colon): > 25700 nM
- GI50 (PC-3 prostate): 1300 nM
- TGI (PC-3 prostate): 2810 nM
- GI50 (A549 NSCLC): 3250 nM
- TGI (A549 NSCLC): 11500 nM
- GI50 (DU-145 prostate): 761 nM
- TGI (DU-145 prostate): 2040 nM
- GI50 (OVCAR-3 ovarian): 1670 nM
- TGI (OVCAR-3 ovarian): 5790 nM
- GI50 (HCT-116 colon): 1620 nM
- TGI (HCT-116 colon): 10300 nM
- GI50 (TK-10 renal): 1340 nM
- TGI (TK-10 renal): 4850 nM
- GI50 (CCRF-CEM leukemia): 66.1 nM
- TGI (CCRF-CEM leukemia): 777 nM
- GI50 (OVCAR-4 ovarian): 4810 nM
- TGI (OVCAR-4 ovarian): 19500 nM
- TGI (RPMI-8226 leukemia): 36.6 nM
- GI50 (HCT-15 colon): 2030 nM
- GI50 (SK-OV-3 ovarian): 5460 nM
- TGI (SK-OV-3 ovarian): 20000 nM
- GI50 (SNB-75 CNS): 8390 nM
- TGI (SNB-75 CNS): 28800 nM
- GI50 (SN12C renal): 1330 nM
- TGI (SN12C renal): 3240 nM
- GI50 (CAKI-1 renal): 2100 nM
- TGI (CAKI-1 renal): 6570 nM
- GI50 (NCI-H460 lung): 3720 nM
- TGI (NCI-H460 lung): 14000 nM
- GI50 (MDA-MB-231 breast): 551 nM
- TGI (MDA-MB-231 breast): 2480 nM
- GI50 (MOLT-4 leukemia): 219 nM
- TGI (MOLT-4 leukemia): 733 nM
- GI50 (OVCAR-8 ovarian): 2740 nM
- TGI (OVCAR-8 ovarian): 8140 nM
- GI50 (MDA-MB-435): 1920 nM
- TGI (MDA-MB-435): 6180 nM
- GI50 (NCI-H522 lung): 1130 nM
- TGI (NCI-H522 lung): 4040 nM
- GI50 (SF-539 CNS): 1610 nM
- TGI (SF-539 CNS): 3270 nM
- GI50 (SW-620 colon): 656 nM
- TGI (SW-620 colon): 2510 nM
- GI50 (NCI/ADR-RES ovarian): 2360 nM
- GI50 (SK-MEL-2 melanoma): 10800 nM
- TGI (SK-MEL-2 melanoma): 23000 nM
- GI50 (NCI-H23 lung): 1540 nM
- TGI (NCI-H23 lung): 4940 nM
